This is an account of results in article PMC4104029, “Mechanism of Action of Compound-13: An α1-Selective Small Molecule Activator of AMPK” (Chemistry & Biology, 2014).

Experiment [1] deals with T1, muscle glycogen phosphorylase b (Mus musculus, UniProt Q9WUB3).
T1 construct: made in house; host or cells: E. coli
Put plainly: Glycogen phosphorylase assay. It is filed as biochemical. As to conditions: concentrations up to 100 μM; data not shown. The text has this: Supplemental Experimental Procedures:
Materials. Compounds 2 and 13 were synthesised by PeakDale Molecular and Natalia Shpiro (MRC-PPU, Dundee), respectively, as described previously (Gomez-Galeno, et al., 2010).
A769662 was from Selleck Chemicals and AICAR from Toronto Research Chemicals. Mouse FBP1, PYGM and PFK1 (muscle isoform) were cloned, expressed and purified from E.coli using standard techniques. AMPD was purified from chicken muscle (Smiley, et al., 1967).
PP2Cα expressed in E.coli was from the Division of Signal Transduction Therapy (DSTT, Dundee). Peptides were synthesised by GL Biochem (Shanghai). [γ-32P]-ATP, [1-14C]-acetic acid and [9,10-3H(N)]-palmitic acid were from PerkinElmer. pS79 ACC1 (#3661), ACC1 […]
antibodies were purchased from Cell Signaling Technology. Anti-AMPKα1 (07-350) and AMPKα2 (07-363) used for immunoblotting were from Merck-Millipore. Anti-AMPKγ1 was from Origene (clone Y308). Anti-AMPKγ2 was from Epitomics (S1562). Anti-tubulin (B-5-1-2), anti-FLAG (F7425) and anti-FLAG M2 agarose were from Sigma. Anti-HA (HA.11) was from Covance Research Products. AMPKα1/2 antibodies used for immunoprecipitation kinase assays were described previously (Sakamoto, et al., 2006). […]
AMPK preparations. […] Isolated human AMPKα subunits were expressed as N-terminal GST-fusions in E.coli and activated as described for heterotrimeric complexes. […]

The subject of experiment [2] is LKB1−/− mouse embryonic fibroblasts. Kind of experiment: AMPK and ACC phosphorylation in LKB1-null fibroblasts. The conditions noted are these: 1 hr; AICAR 2 mM. It is filed as cell-based. On the procedure: AICAR (0.5 mM) was included as a positive control. Cell lysates were analyzed using western blotting with the indicated antibodies. (B) AMPKα1 or AMPKα2 complexes were immunoprecipitated from hepatocyte extracts prepared as described in (A) and assayed for kinase activity using 0.2 mM AMARA and 0.1 mM ATP. Results are expressed as the mean Pi incorporated in picomoles per minute-milligram ± SD. (C) Hepatocytes were stimulated with 30 μM C13 for the indicated times prior to harvesting, with AICAR (0.5 mM, 1 hr) as positive control. Lysates were analyzed using western blotting with the indicated antibodies. (D) Mouse hepatocytes were treated with the indicated compounds for 1 hr, and adenine nucleotide ratios were determined using capillary electrophoresis of perchloric acid extracts. […] Lysates were analyzed using western blotting with the indicated antibodies. (F) Wild-type (LKB1^+/+) or LKB1-null (LKB1^−/−) mouse embryonic fibroblasts were incubated with the indicated concentrations of C13 for 1 hr. AICAR (2 mM) was included as a positive control. Lysates were analyzed using western blotting with the indicated antibodies.

T1 sequence (Q9WUB3 whole entry): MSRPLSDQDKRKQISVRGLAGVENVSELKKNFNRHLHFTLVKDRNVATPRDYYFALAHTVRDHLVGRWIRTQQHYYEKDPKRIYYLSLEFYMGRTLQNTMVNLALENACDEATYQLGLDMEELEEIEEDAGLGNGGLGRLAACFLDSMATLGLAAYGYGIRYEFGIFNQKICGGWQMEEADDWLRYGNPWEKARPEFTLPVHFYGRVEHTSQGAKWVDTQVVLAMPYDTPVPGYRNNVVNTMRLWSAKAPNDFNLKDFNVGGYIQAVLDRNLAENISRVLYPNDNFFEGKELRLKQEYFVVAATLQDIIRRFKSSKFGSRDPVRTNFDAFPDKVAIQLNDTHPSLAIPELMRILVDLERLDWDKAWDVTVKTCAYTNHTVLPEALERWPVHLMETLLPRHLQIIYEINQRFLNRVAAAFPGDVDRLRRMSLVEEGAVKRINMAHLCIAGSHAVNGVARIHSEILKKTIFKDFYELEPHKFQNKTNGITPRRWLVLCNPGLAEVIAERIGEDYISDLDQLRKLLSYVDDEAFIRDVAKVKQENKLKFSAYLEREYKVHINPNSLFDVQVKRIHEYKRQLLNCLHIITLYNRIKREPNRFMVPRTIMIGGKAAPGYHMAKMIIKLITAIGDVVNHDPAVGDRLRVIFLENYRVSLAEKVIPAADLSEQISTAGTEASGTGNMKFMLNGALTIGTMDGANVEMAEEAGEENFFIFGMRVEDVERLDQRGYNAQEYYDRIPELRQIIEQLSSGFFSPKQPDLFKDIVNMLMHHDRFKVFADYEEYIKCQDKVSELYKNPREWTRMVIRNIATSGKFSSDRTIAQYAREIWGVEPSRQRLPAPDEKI

With `O=P(O)(O)c1ccc(-c2cc(O)on2)o1` [Compound C2, 5-(5-hydroxyl-isoxazol-3-yl)-furan-2-phosphonic acid], the “effect on enzyme activity” value in experiment [1] is “None of these enzymes were affected”.

`CC(C)C(=O)OCOP(=O)(OCOC(=O)C(C)C)c1ccc(C2=NOC(=O)C2)o1` [Compound C13]: the “compound-induced phosphorylation of AMPK and ACC” value in experiment [2] is given as “abolished”.
